Tests used:
MDA-MB-468 = details: 72 h
Summary of the method: (§1)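 To measure viability, fluorescence at 560/590 nm was read after 2.5 µl CellTiter-Blue had been added for 2 h at 37 °C. Cells from breast cancer lines had been seeded in 20 µl suspension onto 384-well plates pre-loaded with compound dissolved in 5 µl medium and kept for 72 h. EC50 comes from a fitted percent-inhibition dose-response curve censored at the highest concentration, after per-plate normalisation to vehicle and a positive kill control, Z'-factor checks, and removal of rows with zero drug sensitivity score.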

Hs578T = details: 72 h
Summary of the method: as §1

MDA-MB-436 = details: 72 h
Summary of the method: as §1

HCC1143 = details: 72 h
Summary of the method: as §1

BT-549 = details: 72 h
Summary of the method: as §1

HCC1937 = details: 72 h
Summary of the method: as §1

MDA-MB-231 [1] = details: 72 h
Summary of the method: as §1

MFM-223 = details: 72 h
Summary of the method: as §1

CAL-120 = details: 72 h
Summary of the method: as §1

HCC1599 = details: 72 h
Summary of the method: as §1

SK-BR-3 = details: 72 h
Summary of the method: as §1

MDA-MB-231 [2] = test: drug sensitivity score (DSS), CellTiter-Glo (DSS (AUC-based score)); higher = stronger drug effect (viability inhibition or cytotoxicity); extreme values may be limits of the assay; details: incubation time: 72 h
Summary of the method: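 Breast cancer cell lines (20 µl suspension) were seeded into 384-well plates holding compound at 5 concentrations in 10-fold steps over a compound-specific 10,000-fold range, then incubated 72 h. CellTox Green fluorescence (485/520 nm) was read first, then CellTiter-Glo luminescence after 10 min at room temperature. Each plate was normalised to 0.1 % DMSO and a positive kill control. The drug sensitivity score was calculated from the area under the fitted dose-response curve.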

With `COc1c(C)cnc(Cn2cnc3c(Cl)nc(N)nc32)c1C` [BIIB021] the “EC50, CellTiter-Blue viability” value (MDA-MB-468) was 353 nM, the “EC50, CellTiter-Blue viability” value (Hs578T) was 47 nM and the “EC50, CellTiter-Blue viability” value (MDA-MB-436) was 429 nM. The “EC50, CellTiter-Blue viability” value (HCC1143) was 64 nM, the “EC50, CellTiter-Blue viability” value (BT-549) was 44.8 nM and the “EC50, CellTiter-Blue viability” value (HCC1937) was 87.1 nM. For the same compound, the “EC50, CellTiter-Blue viability” value (MDA-MB-231 [1]) was 177 nM, the “EC50, CellTiter-Blue viability” value (MFM-223) was 57.7 nM and the “EC50, CellTiter-Blue viability” value (CAL-120) was 26.9 nM. For the same compound, the “EC50, CellTiter-Blue viability” value (HCC1599) was 721 nM, the “EC50, CellTiter-Blue viability” value (SK-BR-3) was 28 nM and the drug sensitivity score (MDA-MB-231 [2]) was 13.4.
With `C#Cc1cccc(Nc2ncnc3cc(OC)c(OCCCCCCC(=O)NO)cc23)c1` [CUDC-101] the “EC50, CellTiter-Blue viability” value (MDA-MB-468) was 200 nM, the “EC50, CellTiter-Blue viability” value (Hs578T) was 394 nM and the “EC50, CellTiter-Blue viability” value (MDA-MB-436) was 969 nM. For the same compound, the “EC50, CellTiter-Blue viability” value (HCC1143) was 361 nM, the “EC50, CellTiter-Blue viability” value (BT-549) was 1620 nM and the “EC50, CellTiter-Blue viability” value (HCC1937) was 770 nM. For the same compound, the “EC50, CellTiter-Blue viability” value (MDA-MB-231 [1]) was 835 nM, the “EC50, CellTiter-Blue viability” value (MFM-223) was 145 nM and the “EC50, CellTiter-Blue viability” value (CAL-120) was 294 nM. For the same compound, the “EC50, CellTiter-Blue viability” value (HCC1599) was 295 nM, the “EC50, CellTiter-Blue viability” value (SK-BR-3) was 101 nM and the drug sensitivity score (MDA-MB-231 [2]) was 13.1.
For `COC1=C2C[C@@H](C)C[C@H](OC)[C@H](O)[C@@H](C)/C=C(\C)[C@H](OC(N)=O)[C@@H](OC)/C=C\C=C(/C)C(=O)NC(=CC1=O)C2=O` [Geldanamycin], the “EC50, CellTiter-Blue viability” value (MDA-MB-468) was 64.7 nM, the “EC50, CellTiter-Blue viability” value (Hs578T) was 90.5 nM and the “EC50, CellTiter-Blue viability” value (MDA-MB-436) was 40.9 nM. The “EC50, CellTiter-Blue viability” value (HCC1143) was 36.6 nM, the “EC50, CellTiter-Blue viability” value (BT-549) was 46.8 nM and the “EC50, CellTiter-Blue viability” value (HCC1937) was 47.1 nM. The “EC50, CellTiter-Blue viability” value (MDA-MB-231 [1]) was 63.1 nM, the “EC50, CellTiter-Blue viability” value (MFM-223) was 90 nM and the “EC50, CellTiter-Blue viability” value (CAL-120) was 38.1 nM. For the same compound, the “EC50, CellTiter-Blue viability” value (HCC1599) was 270 nM, the “EC50, CellTiter-Blue viability” value (SK-BR-3) was 46.8 nM and the drug sensitivity score (MDA-MB-231 [2]) was 5.32.
`C[C@@]1(C(=O)Nc2ccc(F)nc2)CCCN1c1nc(Nc2cc(C3CC3)n[nH]2)c2cccn2n1` was tested, and the “EC50, CellTiter-Blue viability” value (MDA-MB-468) was 772 nM, the “EC50, CellTiter-Blue viability” value (Hs578T) was 4740 nM and the “EC50, CellTiter-Blue viability” value (MDA-MB-436) was 6370 nM. The “EC50, CellTiter-Blue viability” value (HCC1143) was 258 nM, the “EC50, CellTiter-Blue viability” value (BT-549) was 1310 nM and the “EC50, CellTiter-Blue viability” value (HCC1937) was 3300 nM. The “EC50, CellTiter-Blue viability” value (MDA-MB-231 [1]) was 435 nM, the “EC50, CellTiter-Blue viability” value (MFM-223) was 1310 nM and the “EC50, CellTiter-Blue viability” value (CAL-120) was 1930 nM. The “EC50, CellTiter-Blue viability” value (HCC1599) was 70.8 nM, the “EC50, CellTiter-Blue viability” value (SK-BR-3) was 588 nM and the drug sensitivity score (MDA-MB-231 [2]) was 9.67.
For `COC1=CC(c2cc3ccccc3[nH]2)=N/C1=C\c1[nH]c(C)cc1C` [Obatoclax], the “EC50, CellTiter-Blue viability” value (MDA-MB-468) was 105 nM, the “EC50, CellTiter-Blue viability” value (Hs578T) was 162 nM and the “EC50, CellTiter-Blue viability” value (MDA-MB-436) was 99.1 nM. For the same compound, the “EC50, CellTiter-Blue viability” value (HCC1143) was 171 nM, the “EC50, CellTiter-Blue viability” value (BT-549) was 192 nM and the “EC50, CellTiter-Blue viability” value (HCC1937) was 22.4 nM. For the same compound, the “EC50, CellTiter-Blue viability” value (MDA-MB-231 [1]) was 73.2 nM, the “EC50, CellTiter-Blue viability” value (MFM-223) was 1010 nM and the “EC50, CellTiter-Blue viability” value (CAL-120) was 25.9 nM. The “EC50, CellTiter-Blue viability” value (HCC1599) was 678 nM, the “EC50, CellTiter-Blue viability” value (SK-BR-3) was 38.1 nM and the drug sensitivity score (MDA-MB-231 [2]) was 7.72.
In the case of `COC(=O)C[C@](O)(CCCC(C)(C)O)C(=O)O[C@@H]1C(OC)=C[C@]23CCCN2CCc2cc4c(cc2[C@H]13)OCO4` [Omacetaxine], the “EC50, CellTiter-Blue viability” value (MDA-MB-468) is reported as 35.7 nM, the “EC50, CellTiter-Blue viability” value (Hs578T) is reported as 44 nM and the “EC50, CellTiter-Blue viability” value (MDA-MB-436) is reported as 26.6 nM. For the same compound, the “EC50, CellTiter-Blue viability” value (HCC1143) was 46.9 nM, the “EC50, CellTiter-Blue viability” value (BT-549) was 32.1 nM and the “EC50, CellTiter-Blue viability” value (HCC1937) was 9.68 nM. The “EC50, CellTiter-Blue viability” value (MDA-MB-231 [1]) was 36.3 nM, the “EC50, CellTiter-Blue viability” value (MFM-223) was 45.3 nM and the “EC50, CellTiter-Blue viability” value (CAL-120) was 16.9 nM. For the same compound, the “EC50, CellTiter-Blue viability” value (HCC1599) was 18 nM, the “EC50, CellTiter-Blue viability” value (SK-BR-3) was 34.3 nM and the drug sensitivity score (MDA-MB-231 [2]) was 21.2.
